In patent US20170094972A1, “Compounds and Compositions Having Knock-Down Activity Against Insect Pests” (priority 2015, published 2017):

Key:
Type in all cases: in vivo
Anopheles stephensi [1] = assay: 6 well plate test, knockdown after 1 hour and mortality after 24 and 48 hours
Method: The individual wells of six (6) well tissue culture plates were treated with […] of an ethanol solution containing a test compound at a defined concentration. Once the deposits were dry, ten non-blood fed adult female Anopheles stephensi (between two to five day old) were added to each well, and sustained with a 10% sucrose solution in a cotton wool plug. Assessment of the knockdown after 1 hour (Tables B1-B10), and mortality after 24 and 48 hours (Tables B1-B4) was carried out.
In case of multiple tests, the mean value is reported.

Aedes aegypti = assay: 12 well plate knockdown test; conditions: 1 h, read-out: Aedes aegypti 1 hour % KD; for pest or weed control at 0.2 ppm: Rate 0.2 PPM; for pest or weed control at 2 ppm: Rate 2 PPM; for pest or weed control at 20 ppm: Rate 20 PPM; for pest or weed control at 200 ppm: Rate 200 PPM
Method: (§1) The individual wells of a twelve (12) well tissue culture plates were treated with 100 μl of an ethanol solution containing a test compound at a defined concentration. Once the deposits were dry, five non-blood fed adult female Aedes aegypti or Anopheles stephensi (between two to five day old) were added to each well, and sustained with a 10% sucrose solution in a cotton wool plug. Assessment of the knockdown after 1 hour was carried out. Where multiple replicates of a treatment have been undertaken, the mean of those replicates is reported.

Anopheles stephensi [2] = assay: 12 well plate knockdown test; conditions: 1 h, read-out: Anopheles stephensi 1 hour % KD; for pest or weed control at 0.2 ppm: Rate 0.2 PPM; for pest or weed control at 2 ppm: Rate 2 PPM; for pest or weed control at 20 ppm: Rate 20 PPM; for pest or weed control at 200 ppm: Rate 200 PPM
Method: as §1

## CC1(C)[C@H](C(=O)O[C@H](C#N)c2cccc(Oc3ccccc3)c2)[C@@H]1/C=C(\Cl)C(F)(F)F (racemic) [Lambda-cyhalothrin]
Anopheles stephensi [1]; Table B5, 0.025 ppm
  knockdown after 1 hour, Alone: 0
Anopheles stephensi [1]; Table B5, 0.05 ppm
  knockdown after 1 hour, Alone: 0
Anopheles stephensi [1]; Table B5, 0.1 ppm
  knockdown after 1 hour, Alone: 0
Anopheles stephensi [1]; Table B5, 0.2 ppm
  knockdown after 1 hour, Alone: 40

## CNC(=O)c1cc(Cl)cc(C)c1NC(=O)c1cc(Br)nn1-c1ncccc1Cl [Chlorantraniliprole]
Anopheles stephensi [1]; Table B9, 12.5 ppm
  knockdown after 1 hour, Alone: 0
Anopheles stephensi [1]; Table B9, 25 ppm
  knockdown after 1 hour, Alone: 0
Anopheles stephensi [1]; Table B9, 50 ppm
  knockdown after 1 hour, Alone: 0
Anopheles stephensi [1]; Table B9, 100 ppm
  knockdown after 1 hour, Alone: 20
Anopheles stephensi [1]; Table B9, 200 ppm
  knockdown after 1 hour, Alone: 40

## CNC(=O)c1cc(C#N)cc(C)c1NC(=O)c1cc(Br)nn1-c1ncccc1Cl [Cyantraniliprole]
Anopheles stephensi [1]; Table B8, 6.25 ppm
  knockdown after 1 hour, Alone: 0
Anopheles stephensi [1]; Table B8, 12.5 ppm
  knockdown after 1 hour, Alone: 0
Anopheles stephensi [1]; Table B8, 25 ppm
  knockdown after 1 hour, Alone: 0
Anopheles stephensi [1]; Table B8, 50 ppm
  knockdown after 1 hour, Alone: 0
Anopheles stephensi [1]; Table B8, 100 ppm
  knockdown after 1 hour, Alone: 0
Anopheles stephensi [1]; Table B8, 200 ppm
  knockdown after 1 hour, Alone: 20

## O=C(NCc1ccc(Cl)cc1)c1cnccc1C(F)(F)F [I.2]
Aedes aegypti
  pest or weed control at 0.2 ppm: 100%
  pest or weed control at 2 ppm: 100%
  pest or weed control at 20 ppm: 100%
  pest or weed control at 200 ppm: 100%
Anopheles stephensi [2]
  pest or weed control at 0.2 ppm: 0%
  pest or weed control at 2 ppm: 60%
  pest or weed control at 20 ppm: 80%
  pest or weed control at 200 ppm: 100%

## CN(C)C(=O)c1cnccc1C(F)(F)F [I.4]
Aedes aegypti
  pest or weed control at 0.2 ppm: 100%
  pest or weed control at 2 ppm: 100%
  pest or weed control at 20 ppm: 100%
  pest or weed control at 200 ppm: 100%
Anopheles stephensi [2]
  pest or weed control at 0.2 ppm: 40%
  pest or weed control at 2 ppm: 100%
  pest or weed control at 20 ppm: 100%
  pest or weed control at 200 ppm: 100%

## O=c1nc(-c2cnccc2C(F)(F)F)os1 [I.5]
Aedes aegypti
  pest or weed control at 0.2 ppm: 100%
  pest or weed control at 2 ppm: 100%
  pest or weed control at 20 ppm: 100%
  pest or weed control at 200 ppm: 100%
Anopheles stephensi [2]
  pest or weed control at 0.2 ppm: 60%
  pest or weed control at 2 ppm: 100%
  pest or weed control at 20 ppm: 100%
  pest or weed control at 200 ppm: 100%

## CN(C)CNC(=O)c1cnccc1C(F)(F)F [I.6]
Aedes aegypti
  pest or weed control at 0.2 ppm: 100%
  pest or weed control at 2 ppm: 100%
  pest or weed control at 20 ppm: 100%
  pest or weed control at 200 ppm: 100%
Anopheles stephensi [2]
  pest or weed control at 0.2 ppm: 0%
  pest or weed control at 2 ppm: 20%
  pest or weed control at 20 ppm: 40%
  pest or weed control at 200 ppm: 40%

## CC(C)n1nc(-c2cnccc2C(F)(F)F)oc1=O [I.7]
Aedes aegypti
  pest or weed control at 0.2 ppm: 100%
  pest or weed control at 2 ppm: 100%
  pest or weed control at 20 ppm: 100%
  pest or weed control at 200 ppm: 100%
Anopheles stephensi [2]
  pest or weed control at 0.2 ppm: 0%
  pest or weed control at 2 ppm: 0%
  pest or weed control at 20 ppm: 0%
  pest or weed control at 200 ppm: 20%

## CN(OC(=O)OCc1ccccc1)C(=O)c1cnccc1C(F)(F)F [I.8]
Aedes aegypti
  pest or weed control at 0.2 ppm: 100%
  pest or weed control at 2 ppm: 100%
  pest or weed control at 20 ppm: 100%
  pest or weed control at 200 ppm: 100%
Anopheles stephensi [2]
  pest or weed control at 0.2 ppm: 60%
  pest or weed control at 2 ppm: 100%
  pest or weed control at 20 ppm: 100%
  pest or weed control at 200 ppm: 100%
